Test results: ChEMBL document CHEMBL2407073, “RCAI-61 and related 6'-modified analogs of KRN7000: their synthesis and bioactivity for mouse lymphocytes to produce interferon-γ in vivo” (Bioorg Med Chem, 2013)
Calls of active or inactive are those of the source.

How the values were obtained:
Format in all cases: functional, organism-based
Mus musculus [1] = test: Immunostimulatory activity in C57BL/6J mouse assessed as increase in production of IL-12p70 in serum at 2 ug, iv measured at 3 to 6 hrs by cytometric bead array method
Mus musculus [2] = test: Immunostimulatory activity in C57BL/6J mouse assessed as increase in production of IL-4 in serum at 2 ug, iv measured at 3 hrs by cytometric bead array method
Mus musculus [3] = test: Immunostimulatory activity in C57BL/6J mouse assessed as increase in production of IFNgamma in serum at 2 ug, iv by ELISA
Mus musculus [4] = test: Immunostimulatory activity in iv dosed C57BL/6J mouse assessed as increase in production of IL-4 in serum measured at 3 hrs by cytometric bead array method
Mus musculus [5] = test: Immunostimulatory activity in C57BL/6J mouse assessed as increase in production of IFNgamma in serum at 0.02 ug, iv by ELISA
Mus musculus [6] = test: Immunostimulatory activity in C57BL/6J mouse assessed as increase in production of IL-4 in serum at 0.02 to 2 ug, iv measured at 3 hrs by cytometric bead array method

Measured: Activity

CCCCCCCCCCCCCCCCCCCCCCCCCC(=O)N[C@@H](CO[C@H]1O[C@H](C)[C@H](O)[C@H](O)[C@H]1O)[C@H](O)[C@H](O)CCCCCCCCCCCCCC
active: Mus musculus [1] | Mus musculus [2] | Mus musculus [3]

CCCCCCCCCCCCCCCCCCCCCCCCCC(=O)N[C@@H](CO[C@H]1O[C@H](COCCO)[C@H](O)[C@H](O)[C@H]1O)[C@H](O)[C@H](O)CCCCCCCCCCCCCC
active: Mus musculus [1] | Mus musculus [2] | Mus musculus [3]

CCCCCCCCCCCCCCCCCCCCCCCCCC(=O)N[C@@H](CO[C@H]1OC[C@H](O)[C@H](O)[C@H]1O)[C@H](O)[C@H](O)CCCCCCCCCCCCCC
active: Mus musculus [1] | Mus musculus [2] | Mus musculus [3]

CCCCCCCCCCCCCCCCCCCCCCCCCC(=O)N[C@@H](CO[C@H]1O[C@H](CF)[C@H](O)[C@H](O)[C@H]1O)[C@H](O)[C@H](O)CCCCCCCCCCCCCC
active: Mus musculus [1] | Mus musculus [2] | Mus musculus [3]

CCCCCCCCCCCCCCCCCCCCCCCCCC(=O)N[C@@H](CO[C@H]1O[C@H](CC)[C@H](O)[C@H](O)[C@H]1O)[C@H](O)[C@H](O)CCCCCCCCCCCCCC
active: Mus musculus [1] | Mus musculus [2] | Mus musculus [3]

CCCCCCCCCCCCCCCCCCCCCCCCCC(=O)N[C@@H](CO[C@H]1O[C@H](COC)[C@H](O)[C@H](O)[C@H]1O)[C@H](O)[C@H](O)CCCCCCCCCCCCCC
active: Mus musculus [4] Dose-dependent effect | Mus musculus [1] | Mus musculus [2] | Mus musculus [3] | Mus musculus [5]

CCCCCCCCCCCCCCCCCCCCCCCCCC(=O)N[C@@H](CO[C@H]1O[C@H](COCC)[C@H](O)[C@H](O)[C@H]1O)[C@H](O)[C@H](O)CCCCCCCCCCCCCC
active: Mus musculus [1] | Mus musculus [2] | Mus musculus [3]

CCCCCCCCCCCCCCCCCCCCCCCCCC(=O)N[C@@H](CO[C@H]1O[C@H](COCOCCOC)[C@H](O)[C@H](O)[C@H]1O)[C@H](O)[C@H](O)CCCCCCCCCCCCCC
active: Mus musculus [1] | Mus musculus [2] | Mus musculus [3]

CCCCCCCCCCCCCCCCCCCCCCCCCC(=O)N[C@@H](CO[C@H]1O[C@H](COCCC)[C@H](O)[C@H](O)[C@H]1O)[C@H](O)[C@H](O)CCCCCCCCCCCCCC
active: Mus musculus [1] | Mus musculus [2] | Mus musculus [3]

CCCCCCCCCCCCCCCCCCCCCCCCCC(=O)N[C@@H](CO[C@H]1O[C@H](COCOC)[C@H](O)[C@H](O)[C@H]1O)[C@H](O)[C@H](O)CCCCCCCCCCCCCC
active: Mus musculus [1] | Mus musculus [2] | Mus musculus [3]

CCCCCCCCCCCCCCCCCCCCCCCCCC(=O)N[C@@H](CO[C@H]1O[C@H](CO)[C@H](O)[C@H](O)[C@H]1O)[C@H](O)[C@H](O)CCCCCCCCCCCCCC
active: Mus musculus [1] | Mus musculus [6] | Mus musculus [2] | Mus musculus [3]
